Earlier results in PMC9227781, “Inhibitors of O-Acetylserine Sulfhydrylase with a Cyclopropane-Carboxylic Acid Scaffold Are Effective Colistin Adjuvants in Gram Negative Bacteria” (Pharmaceuticals, 2022).

Key:
StOASS-A = target: T1, StOASS-A (Salmonella typhimurium, UniProt P0A1E3); parameters: method as in PMID 26894308; conditions: read-out: KD toward isoform A from S. Typhimurium; cited from earlier work
T1 construct: His-tag (with TEV site) (cleaved yes); made in house; host or cells: E. coli Rosetta (DE3)
T1 sequence (P0A1E3 whole entry, canonical isoform): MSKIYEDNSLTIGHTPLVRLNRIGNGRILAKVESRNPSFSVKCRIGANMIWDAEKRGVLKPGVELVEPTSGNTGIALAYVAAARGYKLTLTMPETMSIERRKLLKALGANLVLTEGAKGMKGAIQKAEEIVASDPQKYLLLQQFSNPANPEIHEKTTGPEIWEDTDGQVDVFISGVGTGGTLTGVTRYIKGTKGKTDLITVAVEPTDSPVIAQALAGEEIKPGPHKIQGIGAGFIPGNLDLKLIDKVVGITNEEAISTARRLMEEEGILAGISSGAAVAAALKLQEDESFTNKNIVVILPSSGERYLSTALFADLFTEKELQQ

StOASS-B = target: T2, StOASS-B (Salmonella typhimurium, UniProt P29848); parameters: method as in PMID 26894308; conditions: read-out: KD toward isoform B from S. Typhimurium; cited from earlier work
T2 construct: His-tag (with TEV site) (cleaved yes); made in house; host or cells: E. coli Rosetta (DE3)
T2 sequence (P29848 1-303): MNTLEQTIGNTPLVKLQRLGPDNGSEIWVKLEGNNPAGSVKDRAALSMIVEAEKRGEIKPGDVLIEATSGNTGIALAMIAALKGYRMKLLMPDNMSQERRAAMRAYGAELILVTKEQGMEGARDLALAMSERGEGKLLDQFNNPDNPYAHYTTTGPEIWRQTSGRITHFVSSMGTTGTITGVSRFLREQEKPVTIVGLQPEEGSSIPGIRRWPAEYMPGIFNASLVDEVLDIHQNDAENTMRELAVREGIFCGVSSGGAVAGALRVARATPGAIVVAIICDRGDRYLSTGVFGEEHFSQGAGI

[1] = system: all bacterial species considered in that study; parameters: method as in PMID 33513010; conditions: cited from earlier work

Q: With Cc1ccc(C[C@@]2(C(=O)O)C[C@H]2c2ccccc2)cc1 [UPAR415] as the compound, how does the Kd (StOASS-A) read?
A: 0.028 µM

Q: And the Kd (StOASS-B)?
A: 0.49 µM

Q: What about the “effect as colistin adjuvant” value [1] of the same compound?
A: synergistic or additive effect
